# US20100076072A1, “COMPOSITIONS AND METHODS OF VITAMIN E ADMINISTRATION” (NORTHWESTERN UNIVERSITY, priority 2008, published 2010)
# Tests used:
# [1] = system: VCAM-1-dependent spleen cell migration across mHEVa endothelial cells; assay: In vitro Transwell migration assay; type: cell-based, mouse
# Protocol: In vitro Transwell migration assay. mHEVa cells were grown to confluence on Transwells with 12 μm pores (Costar Cambridge, Mass.). The mHEVc cell monolayers block nonspecific accumulation of red blood cells in the lower transwell chamber and block FITC-albumin diffusion. Spleen cell migration is stimulated by mHEV cell secretion of the chemokine MCP-1. The number of lymphocytes that migrate is linear from 0-24 hrs followed by a plateau. Spleen cells that migrate are greater than 95% lymphocytes and the percentage of cells that migrate is consistent with other in vitro models with endothelial cell lines or cytokine-activated microvascular endothelial cells.
# In this transendothelial migration assay used, the migrated spleen cells are >95% lymphocytes and the B cells and T cells migrate in response to MCP-1. […]
# [2] = system: OVA-challenged mice (experimental asthma); assay: OVA experimental asthma: lung tissue eosinophils (anti-major basic protein immunolabeling); type: in vivo, mouse; conditions: daily s.c. 2 μg tocopherol days 13-20, day 21
# [3] = system: OVA-challenged mice (experimental asthma); assay: Airway hyperresponsiveness to methacholine, whole-body plethysmography (Penh); type: in vivo, mouse
# Protocol: Airway Hyperresponsiveness. Lung responsiveness was determined using methacholine as previously described. On day 21, the mice were analyzed for airway responsiveness by whole body plethysmology. The whole-body plethysmography on conscious, unrestrained mice was performed under continuous airflow conditions (Buxco, Troy, N.Y.). Continuous airflow was used to avoid the influence of conditioning on airway functions, causing aberrant measurements. Enhanced pause (Penh) values were calculated from the flow-derived whole-body plethysmography measurements done with continuous air flow. Penh is a unitless indicator of changes in airway resistance and correlates well with specific airway resistance. Baseline readings were averaged for 5 minutes. Saline or methacholine was nebulized into the airflow for 2-minute periods and the average Penh value calculated for this and the subsequent 8 minutes.
# Mice were sensitized with intraperitoneal injection of OVA grade V (10 μg)/alum or saline/alum on days 0 and 7 (SEE FIG. 2). On days 13-20, these mice received daily subcutaneous injections (500) of 2 μg natural tocopherol/ethoxylated castor oil (33) or ethoxylated castor oil alone. This daily 2 μg of natural tocopherol is equivalent to the amount of tocopherol that mice consume from diets (4 g diet consumed/day×500 mg a tocopherol/kg diet) that are commonly used to elevate tissue tocopherols in mice. On days 16, 18, and 20 the mice were challenged with intranasal OVA fraction VI (150 μg) in saline or saline alone. On day 21, the mice were analyzed for airway responsiveness and then tissues were collected. Lung responsiveness was determined using methacholine and whole-body plethysmography as previously described. This method of measuring lung function has the advantage of analysis of larger numbers of animals, as compared to the few animals that can be analyzed using invasive measures of lung function. The whole-body plethysmography correlates well with airway function when performed under continuous flow conditions. […]
# PKCα = target: T1, PKCα (Mus musculus, UniProt P20444); assay: VCAM-1 activation of endothelial cell PKCα (PKCα-Thr638 phosphorylation, western blot); type: cell-based; conditions: overnight 80 μM α-tocopherol / 2 μM γ-tocopherol; anti-VCAM-1 stimulation 10 minutes
# T1 construct: endogenous in cells; host or cells: endothelial cells (mHEVa named)
# Protocol: Endothelial cells were pretreated overnight with physiological concentrations of tocopherols (80 μM α-tocopherol and/or 2 μM γ-tocopherol). Endothelial cell VCAM-1 was stimulated with anti-VCAM-1 and a secondary antibody for 10 minutes. Phosphorylation of PKCα-Thr^638 was examined by western blot, developed using an ECL kit, and analyzed by densitometry as in the methods section. These concentrations of α-tocopherol (80 μM) and γ-tocopherol (2 μM) were optimal for their inhibition or enhancement, respectively, of VCAM-1 activation of PKCα (data not shown). Shown are representative blots and data from 5 experiments. *, p<0.05 compared to nonstimulated groups. **, p<0.05 compared to nonstimulated groups and p<0.07 compared to DMSO-treated/anti-VCAM-stimulated group.
# [4] = Body and lung weights on day 21; type: in vivo, mouse; conditions: mice, day 21, daily s.c. tocopherol days 13-20
# Protocol: (§1) Tissue collection. After airway function analysis, mice were weighed, sacrificed and the lungs flushed twice with 0.8 ml PBS. The cells in this bronchoalveolar lavage (BAL) were cytospun onto slides, DiffQuik (Baxter) stained, and differential cell counts were performed. BAL supernatants were snap frozen and stored at −80° C. for cytokine analysis. Lungs were perfused free of blood and one quarter of the lung was tied off, collected, weighed, snap frozen, and stored at −80° C. for tocopherol analysis and PGE2 analysis. One quarter of the lung was collected and placed in RNA later for analysis of mRNA for eotaxin expression. The other half of the lung was injected with 40% freezing compound, collected and stored at −80° C. for tissue sections and histological staining Frozen sections were prepared rather than paraffin sections since the anti-mouse VCAM-1 antibodies only bind to VCAM-1 in frozen sections.
# Body weight and tocopherol levels in these mice were examined. […] Consistent with this, the body weight and lung weights of the mice studied during the development of embodiments of the present invention were unaltered by the α-tocopherol or γ-tocopherol treatments (SEE FIG. 3). Lungs were perfused to remove the blood, homogenized in ethanol and extracted with hexane. Tocopherol concentrations were determined by HPLC with an electrochemical detector. The lung tissue and plasma levels of tocopherols were elevated (SEE FIG. 4). […] The level of γ-tocopherol in the lung tissue of γ-tocopherol-treated mice was 10 fold lower than lung tissue α-tocopherol in the α-tocopherol-treated mice. This 10 fold difference in α-tocopherol and γ-tocopherol levels in the lung tissues may be caused preferential transfer of α-tocopherol in the liver by a TTP (20, 24), although the present invention is not limited to any particular mechanism of action and an understanding of the mechanism of action is not necessary to practice the present invention. […] Administration of tocopherols also had no effect on the low levels of δ-tocopherol in the lung (SEE FIG. 4A).
# [5] = in vivo; cited from earlier work
# arthritis = assay: Arthritis
# [6] = system: OVA-challenged mice (experimental asthma); assay: OVA experimental asthma: leukocyte infiltration into bronchoalveolar lavage (BAL); type: in vivo, mouse
# Protocol: Reagents. Ethoxylated castor oil was composed of polyethoxylated castor oil (PEG35), 20% ethanol, and 1% benzyl alcohol. […] The purified tocopherols were diluted in ethoxylated castor oil to indicated concentrations for the in vivo studies. The purified tocopherols were diluted in DMSO (0.2%) for the in vitro studies. OVA administration. BALB/c female mice were maintained on chow diet. The mice were sensitized by intraperitoneal injection (200 μl) of OVA grade V (10 μg)/alum or saline/alum on days 0 and 7 (SEE FIG. 1). On days 13-20, these mice received daily subcutaneous injections (50 μl) of 2 μg natural tocopherol/ethoxylated castor oil or ethoxylated castor oil alone. This daily 2 μg of natural tocopherol is equivalent to the amount of tocopherol that mice consume from diets (4 g diet consumed/day×500 mg α-tocopherol/kg diet) that are commonly used to elevate tissue tocopherols in mice. The mice recieved 2 μg d-α-tocopherol, 2 μg d-γ-tocopherol, 2 μg d-α-tocopherol plus 2 μg d-γ-tocopherol or the vehicle exthoxylated castor oil. […] During the OVA responses in mice, tocopherol radicals are recycled by endogenously synthesized ascorbic acid. On days 16, 18, and 20, the mice were challenged with intranasal OVA fraction VI (150 μg) in saline or saline alone. On day 21, the mice were analyzed for airway responsiveness followed by collection of tissues.
# as §1
# Mice were sensitized with intraperitoneal injection of OVA grade V (10 μg)/alum or saline/alum on days 0 and 7 (SEE FIG. 2). On days 13-20, these mice received daily subcutaneous injections (500) of 2 μg natural tocopherol/ethoxylated castor oil (33) or ethoxylated castor oil alone. This daily 2 μg of natural tocopherol is equivalent to the amount of tocopherol that mice consume from diets (4 g diet consumed/day×500 mg a tocopherol/kg diet) that are commonly used to elevate tissue tocopherols in mice. On days 16, 18, and 20 the mice were challenged with intranasal OVA fraction VI (150 μg) in saline or saline alone. On day 21, the mice were analyzed for airway responsiveness and then tissues were collected. Lung responsiveness was determined using methacholine and whole-body plethysmography as previously described. This method of measuring lung function has the advantage of analysis of larger numbers of animals, as compared to the few animals that can be analyzed using invasive measures of lung function. The whole-body plethysmography correlates well with airway function when performed under continuous flow conditions. This measurement under continuous flow is critical as it avoids the complication of airway conditioning that occurs if these measurements are incorrectly made under closed conditions. After airway analysis, mice were sacrificed and tissues collected.
# [7] = Tocopherol levels in lung tissue and plasma (HPLC, electrochemical detector); type: in vivo, mouse
# Protocol: Body weight and tocopherol levels in these mice were examined. […] Lungs were perfused to remove the blood, homogenized in ethanol and extracted with hexane. Tocopherol concentrations were determined by HPLC with an electrochemical detector.
# [8] = OVA-challenged mice, co-treatment with α-tocopherol
# [9] = OVA-challenged BALB/c mice, daily s.c. 2 μg tocopherol days 13-20, day 21, vs OVA-challenged vehicle
compound,measurement,setting,value
"Cc1c(O)cc2c(c1C)O[C@](C)(CCC[C@H](C)CCC[C@H](C)CCCC(C)C)CC2 [γ-tocopherol, d-γ-tocopherol]",Effect on α-tocopherol inhibition of spleen cell migration,[1]; 5 μM γ-tocopherol with α-tocopherol (80 μM)-treated cells,ablated
same,Lymphocyte migration after pretreatment of endothelial cells,"[1]; endothelial cells pretreated, washed five times, transwell assay",elevated lymphocyte migration
same,Migration after pretreatment of leukocytes with tocopherol and washing,"[1]; leukocytes pretreated, washed",no effect on migration
same,Lymphocyte migration in transwell migration assay,"[1]; tocopherol left in culture, 24 hours after addition of spleen cells, 80 μM α / 5 μM γ",significantly increases lymphocyte migration
same,Eosinophils in the lung tissue,[2],elevated
same,"Airway hyperresponsiveness (AHR), enhanced pause (Penh)","[3]; OVA-challenged BALB/c mice, methacholine dose curve, day 21",elevated
same,Effect on α-tocopherol inhibition of AHR,[3]; [8],antagonized the inhibition by α-tocopherol
same,VCAM-1 activation of PKCα (phosphorylation of PKCα-Thr638),PKCα,enhancement
same,Body weight,[4],unaltered
same,Lung weights,[4],unaltered
same,Retention in tissues relative to α-tocopherol,[5],10%
same,Effect on arthritis,arthritis,exacerbatory effect
same,OVA-stimulated infiltration of eosinophils into the BAL,[6]; [9],significantly increased
same,OVA-stimulated infiltration of lymphocytes into the BAL,[6]; [9],significantly increased
same,OVA-stimulated infiltration of monocytes into the BAL,[6]; [9],significantly increased
same,OVA-stimulated infiltration of neutrophils into the BAL,[6]; [9],significantly increased
same,Effect on the benefit of α-tocopherol (BAL leukocyte infiltration),[6]; [8],blocked the benefit of α-tocopherol
same,Lung tissue γ-tocopherol in γ-tocopherol-treated mice relative to lung tissue α-tocopherol in α-tocopherol-treated mice,[7]; day 21,10 fold lower
same,Lung tissue level of the other tocopherol (α vs γ),"[7]; mice, day 21",did not alter
same,Lung tissue level of the administered tocopherol,"[7]; mice, day 21, daily s.c. 2 μg tocopherol days 13-20",elevated levels
